Reference: PubChem BioAssay AID210 (DTP/NCI, 2004)
Inconclusive results and toxic doses are left out. The calls were made as follows: active = survival T/C of 150% or more; inactive = T/C below 125% in these data.

System: CD2F1 mice, ip Colon 26 adenocarcinoma, median survival T/C
Experiment: NCI In Vivo Anticancer Drug Screen. Data for tumor model Colon 26 Adenocarcinoma (intraperitoneal) in CD2F1 (CDF1) mice
Conditions: endpoint: median survival time, higher = longer survival
Procedure: The antitumor activity of compounds was measured in mice bearing transplantable tumors. Survival or tumor size were measured and the results are expressed as the measurement made in the treated group (T) divided by the measurement made in the vehicle treated control group (C). The tumor model used in this assay is Colon 26 Adenocarcinoma (intraperitoneal) in CD2F1 (CDF1) mice

Measured: T/C

Nc1nc2c(ncn2C2OC(CO)C(O)C2N)c(=O)[nH]1 (stereo not drawn)
inactive: dose: 3.0 mg/kg/injection, schedule: Q04DX002 (ip), vehicle: saline with Tween-80 95 % of control | dose: 6.0 mg/kg/injection, schedule: Q04DX002 (ip), vehicle: saline with Tween-80 105 % of control | dose: 12.0 mg/kg/injection, schedule: Q04DX002 (ip), vehicle: saline with Tween-80 88 % of control | dose: 24.0 mg/kg/injection, schedule: Q04DX002 (ip), vehicle: saline with Tween-80 88 % of control | dose: 48.0 mg/kg/injection, schedule: Q04DX002 (ip), vehicle: saline with Tween-80 96 % of control | dose: 96.0 mg/kg/injection, schedule: Q04DX002 (ip), vehicle: saline with Tween-80 93 % of control

CCCCCCCC(=O)OCC(=O)[C@]1(O)Cc2c(O)c3c(c(O)c2[C@@H](OC2CC(N)C(O)C(C)O2)C1)C(=O)c1c(OC)cccc1C3=O (stereo partly drawn)
inactive: dose: 4.5 mg/kg/injection, schedule: Q07DX003 (iv), vehicle: saline 112 % of control | dose: 7.0 mg/kg/injection, schedule: Q07DX003 (iv), vehicle: saline 112 % of control

CCCCCC(=O)O[C@]1(C(C)=O)CC[C@H]2[C@@H]3CCC4=CC(=O)CC[C@]4(C)[C@H]3CC[C@@]21C
inactive: dose: 25.0 mg/kg/injection, schedule: Q04DX003 (ip), vehicle: Klucel (hydroxypropylcellulose) (HPC) 101 % of control | dose: 50.0 mg/kg/injection, schedule: Q04DX003 (ip), vehicle: Klucel (hydroxypropylcellulose) (HPC) 106 % of control | dose: 100.0 mg/kg/injection, schedule: Q04DX003 (ip), vehicle: Klucel (hydroxypropylcellulose) (HPC) 100 % of control | dose: 200.0 mg/kg/injection, schedule: Q04DX003 (ip), vehicle: Klucel (hydroxypropylcellulose) (HPC) 106 % of control | dose: 400.0 mg/kg/injection, schedule: Q04DX003 (ip), vehicle: Klucel (hydroxypropylcellulose) (HPC) 103 % of control
